Patent publication US20010006646A1, “METHOD AND SYSTEM FOR TREATMENT OF WOUNDS” (priority 1996, published 2001)

Legend:
[1] = test system: 16 month old chronic interstitial, encapsulated, alpha-hemolytic, streptococcal channelling ulceration located on their right ankle; assay: Example 1: old chronic ankle wound, treatment of a human patient; assay type: in vivo; conditions: for outcome of conventional per orum treatments / outcome of conventional intravenous treatments: two week cycle each, not given in the same period
Procedure: The concepts of the invention will now be illustrated by the following Examples, which are intended to be purely exemplary and not limiting. The chemical debriding complex applied to the wound treated in example 1 was an aerosolized liquid composition comprising:
(§1) The formulation of the present invention used in the following examples was prepared in the form of a gel as follows:
(§2) (4) 1 ml of mixture (a), 1 ml of mixture (b) and 1 ml of mixture (c) were combined using a three step homogenization process to form the gel formulation of the present invention used in the following examples, namely
(§3) The dose of formulation used in treating the wounds in the following examples was based on the wound volume. The wound volume was measured in cubic centimeters using well known methods.
A human patient in normal health, suffered from a 16 month old chronic interstitial, encapsulated, alpha-hemolytic, streptococcal channelling ulceration located on their right ankle and tunnelled to the periosteum of the bone in their right ankle. […] Conventional intravenous treatments, including a two week cycle of penicillin and a two week cycle of amoxicillin, were unsuccessful. Note that the penicillin and the amoxicillin were not administered during the same two week period. Conventional per orum treatments, including a two week cycle of Keflex® and a two week cycle of Cipro®, were unsuccessful. Note that the Keflex and Cipro were not administered during the same two week period, nor were they administered during the same two week period as either of the penicillin or the amoxicillin.
(§4) The wound was subsequently treated using the gel formulation prepared as described above. Specifically, the given formulation was administered to the patient's wound as part of the following treatment procedure. Particularly, (i) the wound was prepared for administration of the given formulation by liberal application of a chemical debriding complex described above; (ii) after allowing the chemical debriding complex to bubble off, about three (3) minutes, a medicated pad comprising a sterile pad containing about three (3) ml of the gel formulation for each cubic centimeter of wound volume was placed over the wound and secured to the patient; (iii) the medicated pad was removed about twenty-four (24) hours later; (iv) steps (i) through (iii) were repeated. After seven (7) days of treatment, the wound was completely closed.

[2] = test system: 18 month old chronic bed sore on the middle of their back; assay: Example 2: old chronic back wound (bed sore), treatment of a human patient; assay type: in vivo; conditions: dressings in conjunction with two serial courses of antibiotics (per orum Cipro 500 mg B.I.D., then 500 mg intravenous Keflex every eight hours)
Procedure: The chemical debriding complex applied to each of the wounds treated in examples 2 through 4 was an aerosolized liquid composition comprising:
as §1, §2, §3, §4
A human patient in very poor health suffering from CHF, diabetes, peripheral vascular disease, 10% body surface non-candidyal yeast infection, nutritional deficit, and “steroid” skin secondary to prednisone administration for auto-immune arthritis and from an 18 month old chronic bed sore on the middle of their back. Conventional treatments, including granulex, zinc oxide, duoderm and sorbasan dressings in conjunction with two serial courses of oral antibiotics, per orum Cipro 500 mg B.I.D. followed by 500 mg intravenous Keflex every eight hours, were unsuccessful at stimulating the healing of the wound. […]

[3] = test system: six (6) month old chronic pressure-friction wound on both haunches; assay: Example 3: canine pressure wound; assay type: in vivo, Borzoi; conditions: duoderm post shaving; before treatment with the formulation

Molecule	outcome of conventional per orum treatments [1]	outcome of conventional treatments at stimulating the healing of the wound [2]	outcome of conventional intravenous treatments [1]	outcome of conventional treatments [3]	outcome of conventional topical treatments ([1]; topical, before treatment with the gel formulation)
O=C(O)c1cn(C2CC2)c2cc(N3CCNCC3)c(F)cc2c1=O [Cipro]	unsuccessful	unsuccessful	–	–	–
CC1=C(C(=O)O)N2C(=O)[C@@H](NC(=O)[C@H](N)c3ccccc3)[C@H]2SC1 [Keflex]	unsuccessful	unsuccessful	–	–	–
CC1(C)S[C@@H]2[C@H](NC(=O)[C@H](N)c3ccc(O)cc3)C(=O)N2[C@H]1C(=O)O [amoxicillin]	–	–	unsuccessful	–	–
[O]=[Zn] [zinc oxide]	–	unsuccessful	–	repeatedly unsuccessful	repeatedly unsuccessful
penicillin	–	–	unsuccessful	–	–
